Data on 8 molecules can be found in US10975119B2, “Selective cysteine protease inhibitors and uses thereof” (Genesis Technologies Limited, priority 2011, dated 2021).

Where a name gives a salt, the structure may show the parent alone. Read-outs that look alike come from different tables or passages of the source.

Common to all, as to type: biochemical
The target in one experiment is T1, Caspase-6 (Homo sapiens, UniProt P55212).
T1 construct: mixing the compounds with the respective active caspases; purchased BioVision K156-100
T1 sequence (P55212 24-179 limits assumed): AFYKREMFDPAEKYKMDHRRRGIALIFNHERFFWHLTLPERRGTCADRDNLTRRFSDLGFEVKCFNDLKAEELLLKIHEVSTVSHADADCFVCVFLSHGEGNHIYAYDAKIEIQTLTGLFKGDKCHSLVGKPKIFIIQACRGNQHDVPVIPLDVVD
T1 sequence (P55212 194-293 limits assumed): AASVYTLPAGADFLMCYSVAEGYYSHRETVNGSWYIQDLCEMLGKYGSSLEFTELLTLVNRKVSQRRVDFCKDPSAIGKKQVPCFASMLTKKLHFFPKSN
The experiment in a line: Caspase-6 inhibitor screening assay (BioVision kit, VEID-AFC). The conditions noted are these: for inhibition at 10 µM: read-out: % Inhibition at 10 uM Casp6; for inhibition at 100 µM: read-out: % Inhibition at 100 uM Casp6. The method, boiled down: (§1)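 Fluorometric read-out of free AFC released from the caspase-specific synthetic substrate. IC50 from concentration series, sometimes narrower.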

A further experiment concerns the target T2, Caspase-3 (Homo sapiens, UniProt P42574).
T2 construct: mixing the compounds with the respective active caspases; purchased BioVision K153-100
T2 sequence (P42574 29-175 limits assumed): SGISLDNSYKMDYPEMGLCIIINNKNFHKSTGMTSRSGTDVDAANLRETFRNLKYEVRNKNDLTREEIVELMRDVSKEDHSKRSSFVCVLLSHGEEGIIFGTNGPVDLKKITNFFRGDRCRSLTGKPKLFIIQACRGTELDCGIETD
T2 sequence (P42574 176-277 limits assumed): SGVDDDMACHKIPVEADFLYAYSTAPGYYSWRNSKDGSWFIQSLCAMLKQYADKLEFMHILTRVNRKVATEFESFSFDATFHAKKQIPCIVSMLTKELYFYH
The experiment can be described thus: Caspase-3 inhibitor screening assay (BioVision kit, DEVD-AFC). To be noted: for inhibition at 10 µM: read-out: % Inhibition at 10 uM Casp3; for inhibition at 100 µM: read-out: % Inhibition at 100 uM Casp3. The method, boiled down:
as §1

The next experiment has as its target T3, Caspase-10 (Homo sapiens, UniProt Q92851).
T3 construct: mixing the compounds with the respective active caspases; purchased BioVision K160-100
T3 sequence (Q92851 220-415 limits assumed): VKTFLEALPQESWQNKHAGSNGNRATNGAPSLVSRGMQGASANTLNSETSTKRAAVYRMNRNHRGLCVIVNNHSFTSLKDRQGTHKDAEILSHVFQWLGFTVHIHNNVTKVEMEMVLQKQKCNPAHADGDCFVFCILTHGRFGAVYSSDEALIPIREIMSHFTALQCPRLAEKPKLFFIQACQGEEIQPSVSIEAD
T3 sequence (Q92851 416-521 limits assumed): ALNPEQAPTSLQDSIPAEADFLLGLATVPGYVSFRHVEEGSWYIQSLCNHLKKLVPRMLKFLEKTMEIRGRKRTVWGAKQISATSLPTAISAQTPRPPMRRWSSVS
The experiment can be described thus: Caspase-10 inhibitor screening assay (BioVision kit, AEVD-AFC). To be noted: for inhibition at 10 µM: read-out: % Inhibition at 10 uM Casp10; for inhibition at 100 µM: read-out: % Inhibition at 100 uM Casp10. The method, boiled down:
as §1

The next experiment concerns Caspases 1 through 10. The experiment in a line: Caspase-1 to Caspase-10 inhibitor screening, profile across the panel. The protocol:
The efficacy of an array of compounds as an inhibitor of the activity of Caspases 1 through 10 were assessed by using the respective Caspase Inhibitor Drug Screening Kits (Caspase-1 Catalog #: K151-100, Caspase-2 Catalog #: K152-100, Caspase-3 Catalog #: K153-100, Caspase-4 Catalog #: K154-100, Caspase-5 Catalog #: K155-100, Caspase-6 Catalog #: K156-100, Caspase-7 Catalog #: K157-100, Caspase-8 Catalog #: K158-100, Caspase-9 Catalog #: K159-100, Caspase-10 Catalog #: K160-100, BioVision) following the instructions of the manufacturer. […] Active caspases cleaved their respective synthetic substrates to release free AFC, which was then quantified by fluorometry.
Briefly, the compounds were first tested at 2 concentrations (10 uM and 100 uM final) to determine if there is a hit. […] Each condition was tested in duplicates. […] For some samples, a smaller range of concentrations was tested depending on the % Inhibition results at 10 uM and 100 uM. Results were summarized in Tables 2, 3, and 4 herein after. Table 2 represents the IC50 values (uM) of the test compounds as inhibitors of the activity of the various caspases.
(*) RFU (no inhibitor control)—RFU (compound at a specific concentration)
RFU (no inhibitor control)

The target of another experiment is T4, Caspase-5 (Homo sapiens, UniProt P51878).
T4 construct: mixing the compounds with the respective active caspases; purchased BioVision K155-100
T4 sequence (P51878 137-327 limits assumed): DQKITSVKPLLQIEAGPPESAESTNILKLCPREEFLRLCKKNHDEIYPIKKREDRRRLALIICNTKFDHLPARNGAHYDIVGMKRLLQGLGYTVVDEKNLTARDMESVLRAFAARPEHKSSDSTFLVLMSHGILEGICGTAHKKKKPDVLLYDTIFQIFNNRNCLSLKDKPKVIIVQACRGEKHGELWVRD
T4 sequence (P51878 347-434 limits assumed): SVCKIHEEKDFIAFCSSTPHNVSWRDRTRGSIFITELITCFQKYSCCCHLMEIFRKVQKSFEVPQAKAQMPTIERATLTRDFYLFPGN
The experiment can be described thus: Caspase-5 inhibitor screening assay (BioVision kit, WEHD-AFC). The conditions noted are these: for inhibition at 10 µM: read-out: % Inhibition at 10 uM Casp5; for inhibition at 100 µM: read-out: % Inhibition at 100 uM Casp5. The method, boiled down: as §1

Setting [1] is: read-out: potency (IC50) against caspase-3.
Where [2] appears, read: read-out: potency (IC50) against caspase-10.

For `CC(C)(C)[C@H](NC(=O)[C@H](CC(=O)O)NC(=O)OCc1ccccc1)C(=O)N1CCCC1C(=O)N[C@H](/C=C/S(C)(=O)=O)CC(=O)O` (stereo in doubt) [Compound 26, Z-Asp-t-Leu-Pro-Asp-methyl vinyl sulfone], the inhibition at 10 µM at Caspase-6 worked out at 0%; at Caspase-3, 98%; at Caspase-10, 99%; on Caspase-5 it was 50%. For the same molecule, the inhibition at 100 µM on Caspase-6 was 7%; on Caspase-3 it was 100%; on Caspase-10, 100%; on Caspase-5 it was 91%. Further, the IC50 was over 100000 nM at Caspase-6 (read-out: IC50 Casp6); 120 nM on Caspase-3 (read-out: IC50 Casp3); 123 nM on Caspase-3 (setting [1]); 160 nM at Caspase-10 (read-out: IC50 Casp10); 161 nM on Caspase-10 (setting [2]); 9880 nM at Caspase-5 (read-out: IC50 Casp5). In the experiment with Caspases 1 through 10, the “inhibition profile across caspases, in words” value was “high inhibitory activity towards the effector (executioner) Caspases: Caspase-3 and -7”.

Take `CCOC(=O)/C=C/[C@H](CC(=O)O)NC(=O)[C@H]1CCCN1C(=O)[C@@H](NC(=O)c1ccc2ccccc2n1)C(C)(C)C` [Compound 118, 2-Quinoline carbonyl-t-Leu-Pro-Asp Ethyl Vinyl Ester]: the inhibition at 10 µM turned out to be 3% on Caspase-6, 0% on Caspase-3, 59% at Caspase-10 and 88% at Caspase-5. In addition, the inhibition at 100 µM came to 6% at Caspase-6, 15% at Caspase-3, 97% on Caspase-10 and 99% at Caspase-5. The IC50 at Caspase-6 (read-out: IC50 Casp6) is over 100000 nM; on Caspase-3 (read-out: IC50 Casp3), over 100000 nM; on Caspase-10 (read-out: IC50 Casp10) it was 8050 nM; at Caspase-5 (read-out: IC50 Casp5), 1950 nM. Besides, the “inhibition profile across caspases, in words” value in the experiment on Caspases 1 through 10 is given as “very strong inhibitory activity towards pro-inflammatory Caspases”.

Take `CC(C)(C)[C@H](NC(=O)c1ccc(N)c(Cl)c1)C(=O)N1CCCC1C(=O)N[C@H](/C=C/S(C)(=O)=O)CC(=O)O` (stereo in doubt) [Compound 14, 4-amino-3-chlorobenzene carbonyl-t-Leu-Pro-Asp methyl vinyl sulfone]: the inhibition at 10 µM on Caspase-6 worked out at 3%; on Caspase-3, 7%; on Caspase-10, 81%; at Caspase-5, 96%. The inhibition at 100 µM came out at 30% on Caspase-6, 18% on Caspase-3, 100% at Caspase-10 and 100% at Caspase-5. For the same molecule, the IC50 on Caspase-6 (read-out: IC50 Casp6) was over 100000 nM; on Caspase-3 (read-out: IC50 Casp3) it was over 100000 nM; at Caspase-10 (read-out: IC50 Casp10), 2670 nM; at Caspase-10 (setting [2]), 2670 nM; at Caspase-5 (read-out: IC50 Casp5) it was 560 nM; on Caspase-5 (read-out: potency (IC50) against caspase-5), 563 nM. Moreover, in the experiment with Caspases 1 through 10, the “inhibition profile across caspases, in words” value is “very strong inhibitory activity towards pro-inflammatory Caspases”.

Take `CCOC(=O)/C=C/[C@H](CC(=O)O)NC(=O)[C@@H](NC(=O)[C@H](CCC(=O)O)NC(=O)[C@@H](NC(=O)OCc1ccccc1)C(C)C)C(C)CC` (stereo partly drawn) [Compound 124, Z-Val-Glu-Ile-Asp-Ethyl Vinyl ester]: the IC50 came out at 290 nM on Caspase-6 (read-out: IC50 Casp6); 293 nM on Caspase-6 (read-out: inhibition (IC50) against Caspase-6); 580 nM at Caspase-3 (read-out: IC50 Casp3); 30 nM on Caspase-10 (read-out: IC50 Casp10); 3770 nM at Caspase-5 (read-out: IC50 Casp5). The “inhibition profile across caspases, in words” value in the experiment on Caspases 1 through 10 is reported as “pan-caspase inhibitor”.

Take `CCOC(=O)/C=C/[C@H](CC(=O)O)NC(=O)[C@@H](NC(=O)[C@@H](NC(=O)[C@H](CC(=O)O)NC(=O)OCc1ccccc1)c1ccccc1)C(C)C` [Compound 105, Z-Asp-Phg-Val-Asp Ethyl Vinyl Ester]: the inhibition at 10 µM on Caspase-6 came to 13%; at Caspase-3 it was 99%; at Caspase-10, 96%; on Caspase-5 it was 41%. Besides, the inhibition at 100 µM at Caspase-6 is 10%; on Caspase-3, 100%; at Caspase-10, 99%; on Caspase-5, 41%. Besides, the IC50 was found to be 30 nM at Caspase-3 (read-out: IC50 Casp3), 27 nM on Caspase-3 (setting [1]), 590 nM at Caspase-10 (read-out: IC50 Casp10) and 592 nM at Caspase-10 (setting [2]). In addition, the “inhibition profile across caspases, in words” value with Caspases 1 through 10 was “high inhibitory activity towards the effector (executioner) Caspases: Caspase-3 and -7”.

As to `CS(=O)(=O)/C=C/[C@H](CC(=O)O)NC(=O)[C@@H](N)CCC(=O)O` [Compound 22, Glu-Asp methylsulfone], the inhibition at 10 µM on Caspase-6 was 1%; at Caspase-3, 0%; on Caspase-10 it was 15%; at Caspase-5, 11%. Further, the inhibition at 100 µM on Caspase-6 was 0%; on Caspase-3, 0%; at Caspase-10, 14%; at Caspase-5, 0%. For the same molecule, the 50% inhibitory concentration (IC50) on Caspase-6 (read-out: IC50 Casp6), at Caspase-3 (read-out: IC50 Casp3), on Caspase-10 (read-out: IC50 Casp10) and on Caspase-5 (read-out: IC50 Casp5) was over 100000 nM in each case.

For the molecule `CS(=O)(=O)/C(Cl)=C/[C@@H](N)CC(=O)O` [Compound 4, Asp achlorovinyl methyl vinyl sulfone, Tosyl Salt], the inhibition at 10 µM at Caspase-6 worked out at 0%; at Caspase-3, 4%; at Caspase-10 it was 36%; at Caspase-5, 0%. Moreover, the inhibition at 100 µM on Caspase-6 came to 0%; at Caspase-3 it was 7%; at Caspase-10, 43%; on Caspase-5 it was 1%. The concentration for half-maximal inhibition (IC50) at Caspase-6 (read-out: IC50 Casp6), at Caspase-3 (read-out: IC50 Casp3), on Caspase-10 (read-out: IC50 Casp10) and on Caspase-5 (read-out: IC50 Casp5) was over 100000 nM throughout.

Take `CC(C)[C@H](NC(=O)c1ccc2ccccc2n1)C(=O)N[C@H](/C=C/S(C)(=O)=O)CC(=O)O` [Compound 16, 2-Quinoline carbonyl-Val-Asp methyl vinyl sulfone]: the inhibition at 10 µM at Caspase-6 worked out at 0%; at Caspase-3, 5%; at Caspase-10, 26%; at Caspase-5, 0%. The inhibition at 100 µM at Caspase-6 turned out to be 0%; at Caspase-3, 30%; on Caspase-10 it was 35%; on Caspase-5 it was 10%. For the same molecule, the half-maximal inhibitory concentration (IC50) at Caspase-6 (read-out: IC50 Casp6), on Caspase-3 (read-out: IC50 Casp3), on Caspase-10 (read-out: IC50 Casp10) and at Caspase-5 (read-out: IC50 Casp5) was over 100000 nM each time.
